Laboratory results as given in article PMC3062577, “Purification and biochemical properties of a cytochrome bc complex from the aerobic hyperthermophilic archaeon Aeropyrum pernix” (BMC Microbiology, 2011).

Key:
[1] = biological target: T1, cytochrome oa3 oxidase (Aeropyrum pernix, UniProt Q9YDX6+Q9YDX7); assay: spectrophotometric TMPD oxidation at […] nm; assay type: biochemical; conditions: 25 mM TMPD, 0.1 M NaCl, 50 mM NaPi pH 6.5, 40 °C; without added cytochrome c553
T1 construct: gene aoxB; native, partially purified from A. pernix K1 membranes in DDM; 140 kDa on BN-PAGE; bands 74, 40 and 25 kDa (25 kDa = cytochrome c553); assigned to AoxA/AoxB by size only; aoxABC = APE_0792.1, APE_0793.1, APE_0795.1
T1 sequence (Q9YDX6 whole entry): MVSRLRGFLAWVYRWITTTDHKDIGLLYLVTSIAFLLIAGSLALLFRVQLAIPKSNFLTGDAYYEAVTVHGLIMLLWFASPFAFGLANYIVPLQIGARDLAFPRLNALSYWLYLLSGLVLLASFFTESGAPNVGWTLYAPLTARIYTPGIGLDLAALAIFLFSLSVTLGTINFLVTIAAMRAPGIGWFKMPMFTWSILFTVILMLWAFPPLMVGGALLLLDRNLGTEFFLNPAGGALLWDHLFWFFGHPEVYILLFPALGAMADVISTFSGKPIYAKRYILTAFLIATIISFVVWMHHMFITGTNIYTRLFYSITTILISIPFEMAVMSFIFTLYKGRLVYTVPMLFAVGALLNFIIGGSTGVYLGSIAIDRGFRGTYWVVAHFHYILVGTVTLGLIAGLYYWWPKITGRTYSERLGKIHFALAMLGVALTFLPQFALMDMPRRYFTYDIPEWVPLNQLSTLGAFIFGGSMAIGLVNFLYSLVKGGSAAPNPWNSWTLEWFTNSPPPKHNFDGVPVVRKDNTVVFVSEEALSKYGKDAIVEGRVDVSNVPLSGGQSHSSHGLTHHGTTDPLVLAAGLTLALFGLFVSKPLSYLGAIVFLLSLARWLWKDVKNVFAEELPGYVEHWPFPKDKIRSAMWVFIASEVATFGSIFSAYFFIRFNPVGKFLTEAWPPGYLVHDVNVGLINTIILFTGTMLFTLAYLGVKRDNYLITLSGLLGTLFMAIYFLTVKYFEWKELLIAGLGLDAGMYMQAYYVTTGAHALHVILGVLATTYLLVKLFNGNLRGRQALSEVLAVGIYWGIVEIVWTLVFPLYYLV
T1 sequence (Q9YDX7 whole entry): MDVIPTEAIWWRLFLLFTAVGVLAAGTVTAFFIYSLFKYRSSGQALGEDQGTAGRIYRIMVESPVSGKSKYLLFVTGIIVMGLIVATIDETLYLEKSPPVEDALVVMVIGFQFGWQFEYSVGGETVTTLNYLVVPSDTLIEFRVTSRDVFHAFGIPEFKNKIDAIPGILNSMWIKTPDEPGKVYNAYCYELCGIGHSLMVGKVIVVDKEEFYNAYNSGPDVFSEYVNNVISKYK
T1 sequence (Q9YDX4 whole entry partner): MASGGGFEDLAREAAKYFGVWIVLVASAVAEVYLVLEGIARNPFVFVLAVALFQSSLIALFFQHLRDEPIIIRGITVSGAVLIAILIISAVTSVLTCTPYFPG

[2] = biological target: T2, cytochrome c553 complex (cytochrome bc complex) (Aeropyrum pernix, UniProt Q9YB72+Q9YB73+Q9YB78); assay: spectrophotometric menaquinol oxidation / yeast cytochrome c reduction; assay type: biochemical; conditions: acceptor yeast cytochrome c; pH 7.0, 40 °C, 0.2 mM menaquinol-1 (menaquinol oxidase assay); 0.1% DDM
T2 construct: gene soxC; native complex purified from A. pernix K1 membranes in DDM; 80 kDa on BN-PAGE; subunits 40, 30 and 25 kDa; only the 25-kDa subunit identified by mass (21,344)
T2 sequence (Q9YB72 1-571): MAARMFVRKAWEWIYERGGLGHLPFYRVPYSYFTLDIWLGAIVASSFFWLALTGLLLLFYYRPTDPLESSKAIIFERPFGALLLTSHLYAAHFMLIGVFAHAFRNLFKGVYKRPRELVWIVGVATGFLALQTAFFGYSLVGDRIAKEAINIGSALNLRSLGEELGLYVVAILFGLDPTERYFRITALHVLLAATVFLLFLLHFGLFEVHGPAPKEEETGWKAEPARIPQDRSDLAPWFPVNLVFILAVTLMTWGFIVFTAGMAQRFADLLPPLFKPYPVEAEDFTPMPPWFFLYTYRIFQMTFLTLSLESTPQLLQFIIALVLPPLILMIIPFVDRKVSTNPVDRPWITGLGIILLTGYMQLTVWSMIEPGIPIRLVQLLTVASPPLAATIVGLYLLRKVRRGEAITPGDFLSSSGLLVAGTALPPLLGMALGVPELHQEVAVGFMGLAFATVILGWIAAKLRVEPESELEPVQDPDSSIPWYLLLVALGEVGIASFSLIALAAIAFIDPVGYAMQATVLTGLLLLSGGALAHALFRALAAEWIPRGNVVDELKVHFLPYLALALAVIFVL
T2 sequence (Q9YB73 34-265): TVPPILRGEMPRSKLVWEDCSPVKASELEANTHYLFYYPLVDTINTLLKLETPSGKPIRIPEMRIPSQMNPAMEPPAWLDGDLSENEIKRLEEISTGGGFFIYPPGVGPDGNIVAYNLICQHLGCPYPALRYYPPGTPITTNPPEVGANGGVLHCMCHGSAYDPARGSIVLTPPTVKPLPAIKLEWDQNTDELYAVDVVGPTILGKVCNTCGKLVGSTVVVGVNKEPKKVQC
T2 sequence (Q9YB78 1-190): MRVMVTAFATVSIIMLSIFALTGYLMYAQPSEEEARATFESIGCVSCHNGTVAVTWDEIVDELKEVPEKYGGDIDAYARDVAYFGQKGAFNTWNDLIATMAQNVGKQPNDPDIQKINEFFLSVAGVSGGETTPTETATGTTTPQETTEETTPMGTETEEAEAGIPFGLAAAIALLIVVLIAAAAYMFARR

For CN(C)c1ccc(N(C)C)cc1 [TMPD, N,N,N',N'-tetramethyl-p-phenylenediamine], the “spectrophotometric TMPD oxidation at 562 nm” value [1] was “The isolated cytochrome oa3 oxidase had TMPD and yeast cytochrome c oxidation activity”.
In the case of CC(C)=CCc1c(C)c(O)c2ccccc2c1O [menaquinol-1], the “spectrophotometric menaquinol oxidation / yeast cytochrome c reduction” value [2] is reported as “cytochrome c553 oxidized menaquinol and reduced yeast cytochrome c”.
